{
  "source": "patent US20250000858A1",
  "about": "“FGFR TYROSINE KINASE INHIBITORS FOR THE TREATMENT OF ADVANCED SOLID TUMORS” (JANSSEN PHARMACEUTICA NV, priority 2021, published 2025)",
  "assay": "Pharmacokinetic assessments (plasma concentrations, erdafitinib exposure; CYP2C9*3/*3 genotype)",
  "format": "in vivo, human",
  "settings": "subjects with the CYP2C9*3/*3 genotype; 'may increase'",
  "text": "Therefore, increased adverse reactions are monitored in subjects who are known or suspected to have CYP2C9*3/*3 genotype.",
  "data": [
    {"smiles": "COc1cc(OC)cc(N(CCNC(C)C)c2ccc3ncc(-c4cnn(C)c4)nc3c2)c1", "note": "[erdafitinib, N-(3,5-dimethoxy-phenyl)-N′-(1-methylethyl)-N-[3-(1-methyl-1H-pyrazol-4-yl)quinoxalin-6-yl]ethane-1,2-diamine]", "values": [
      {"measurement": "increase of exposure of erdafitinib", "result": 50, "unit": "%"}
    ]}
  ]
}
